Data taken from the NIST ThermoML archive (doi:10.1021/je900596d).
Numbers after ± are expanded uncertainties.

Settings: 355.18 K, Liquid, Vibrating tube method

FC(F)=C(F)C(F)(F)F [hexafluoropropene]
Settings | mass density [kg/m3]
3539.3 kPa | 945.7 ± 1.2
3560.5 kPa | 947.64 ± 1.2
3582.1 kPa | 949.46 ± 1.1
3603.9 kPa | 951.17 ± 1.1
3625.9 kPa | 953.18 ± 1.1
3667.2 kPa | 956.48 ± 1.1
3687.7 kPa | 958.15 ± 1.1
3708.3 kPa | 959.83 ± 1.1
3730.3 kPa | 961.36 ± 1.1
3751.6 kPa | 963.12 ± 1.1
3773.4 kPa | 964.61 ± 1.1
3795.3 kPa | 966.25 ± 1.1
3807.5 kPa | 967.13 ± 1.1
3828.9 kPa | 968.54 ± 1.1
3851.4 kPa | 970.11 ± 1.1
3873.7 kPa | 971.7 ± 1.1
3916.8 kPa | 974.54 ± 1.1
3938.9 kPa | 976.09 ± 1.1
3959.3 kPa | 977.28 ± 1.1
3981 kPa | 978.83 ± 1.1
4015.2 kPa | 980.9 ± 1.1
4033.6 kPa | 981.94 ± 1.1
4071.4 kPa | 984.1 ± 1.1
4091.9 kPa | 985.37 ± 1.1
4110.7 kPa | 986.72 ± 1.1
4129.8 kPa | 987.54 ± 1.1
4149.4 kPa | 988.81 ± 1.1
4167.6 kPa | 989.92 ± 1.1
4186.6 kPa | 990.96 ± 1.1
4206.8 kPa | 992.1 ± 1.1
4226.2 kPa | 992.98 ± 1.1
4244.6 kPa | 994.12 ± 1.1
4263.6 kPa | 995.02 ± 1.1
4281.8 kPa | 995.99 ± 1.1
4338 kPa | 998.86 ± 1.1
4375.5 kPa | 1000.94 ± 1.1
4413 kPa | 1002.73 ± 1.1
4449.8 kPa | 1004.57 ± 1.1
4487.2 kPa | 1006.43 ± 1.1
4525 kPa | 1008.13 ± 1.1
4562.1 kPa | 1009.97 ± 1.1
4599 kPa | 1011.6 ± 1.1
4638.8 kPa | 1013.65 ± 1.1
4677.4 kPa | 1015.25 ± 1.1
4716.6 kPa | 1016.92 ± 1.1
4794.9 kPa | 1020.36 ± 1.1
4873.9 kPa | 1023.7 ± 1.1
4913.4 kPa | 1025.32 ± 1.1
4951 kPa | 1026.84 ± 1.1
4991.2 kPa | 1028.51 ± 1.1
5029.8 kPa | 1029.94 ± 1.1
5070.6 kPa | 1031.42 ± 1.1
5113 kPa | 1033.05 ± 1.1
5154.1 kPa | 1034.66 ± 1.1
5236.8 kPa | 1037.65 ± 1.1
5275.8 kPa | 1039.14 ± 1.1
5316.9 kPa | 1040.61 ± 1.1
5355.6 kPa | 1041.9 ± 1.1
5398.7 kPa | 1043.42 ± 1.1
5439.2 kPa | 1044.89 ± 1.1
5483.2 kPa | 1046.3 ± 1.1
5561 kPa | 1048.84 ± 1.1
5601.4 kPa | 1050.18 ± 1.1
5642.3 kPa | 1051.53 ± 1.1
5684.6 kPa | 1052.92 ± 1.1
5724.6 kPa | 1054.21 ± 1.1
5768.2 kPa | 1055.5 ± 1.1
5808.2 kPa | 1056.73 ± 1.1
5848.7 kPa | 1058.05 ± 1.1
5893.8 kPa | 1059.3 ± 1.1
5935.5 kPa | 1060.51 ± 1.1
5972.8 kPa | 1061.59 ± 1.1
6013.5 kPa | 1062.81 ± 1.1
6113.5 kPa | 1065.75 ± 1.1
6163.2 kPa | 1067.09 ± 1.1
6213.3 kPa | 1068.54 ± 1.1
6263.6 kPa | 1069.94 ± 1.1
6313.1 kPa | 1071.25 ± 1.1
6362.4 kPa | 1072.65 ± 1.1
6411 kPa | 1074 ± 1.1
6461.2 kPa | 1075.29 ± 1.1
6562.7 kPa | 1077.95 ± 1.1
6611.5 kPa | 1079.21 ± 1.1
6661.1 kPa | 1080.53 ± 1.1
6710.9 kPa | 1081.81 ± 1.1
6761.1 kPa | 1083.05 ± 1.1
6812.8 kPa | 1084.3 ± 1.1
6865.2 kPa | 1085.67 ± 1.1
6915.7 kPa | 1086.78 ± 1.1
6965.9 kPa | 1088.01 ± 1.1
7014.9 kPa | 1089.29 ± 1.1
7065.8 kPa | 1090.44 ± 1.1
7164.6 kPa | 1092.85 ± 1.1
7216.4 kPa | 1093.92 ± 1.1
7265.8 kPa | 1095.06 ± 1.1
7366.2 kPa | 1097.33 ± 1.1
7415.2 kPa | 1098.43 ± 1.1
7466 kPa | 1099.6 ± 1.1
7516.3 kPa | 1100.77 ± 1.1
7566.3 kPa | 1101.91 ± 1.1
7616.2 kPa | 1102.85 ± 1.1
7718.1 kPa | 1105.05 ± 1.1
7768.7 kPa | 1106.11 ± 1.1
7817.3 kPa | 1107.12 ± 1.1
7868.8 kPa | 1108.17 ± 1.1
7921.6 kPa | 1109.13 ± 1.1
7971.5 kPa | 1110.3 ± 1.1
8069.1 kPa | 1112.3 ± 1.1
8121.2 kPa | 1113.23 ± 1.1
8171.1 kPa | 1114.28 ± 1.2
8220.8 kPa | 1115.22 ± 1.1
8273.9 kPa | 1116.3 ± 1.1
8324.3 kPa | 1117.22 ± 1.2
8376.9 kPa | 1118.25 ± 1.2
8428.6 kPa | 1119.32 ± 1.2
8478.5 kPa | 1120.28 ± 1.2
8528.9 kPa | 1121.22 ± 1.2
8578.5 kPa | 1122.06 ± 1.2
8628.9 kPa | 1123.04 ± 1.2
8681.5 kPa | 1124 ± 1.2
8731.5 kPa | 1124.98 ± 1.2
8781.2 kPa | 1125.78 ± 1.2
8835.2 kPa | 1126.86 ± 1.2
8886.8 kPa | 1127.78 ± 1.2
8989.2 kPa | 1129.56 ± 1.2
9039.4 kPa | 1130.46 ± 1.2
9089.8 kPa | 1131.27 ± 1.2
9138.1 kPa | 1132.17 ± 1.2
9187.7 kPa | 1132.92 ± 1.2
9238.4 kPa | 1133.87 ± 1.2
9290.5 kPa | 1134.77 ± 1.2
9339.3 kPa | 1135.6 ± 1.2
9390.7 kPa | 1136.39 ± 1.2
9440.4 kPa | 1137.24 ± 1.2
